The source of these data is ChEMBL document CHEMBL1201862, “PubChem BioAssay data set” (2004).

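Growth conditions: 96-well plates. Treatment: test compound, 48 hours, 5 concentrations. Analysis: linear interpolation between bracketing concentrations; unreached endpoints set to highest concentration. At the GI50, growth is halved.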 Activity calls are given as the source filed them. Rule as the data show it: active = GI50 up to about 1.1 µM and inactive = higher. Square brackets hold non-standard residues; d marks the D form. Peptide text beside a SMILES is read from it. * marks the point of attachment. Boc = CC(C)(C)OC(=O)*; OBn = c1ccc(CO*)cc1

Test systems include OVCAR-5; OVCAR-8; HCT-116; NCI-H460; ACHN; SW-620; SF-268; SN12C; CAKI-1; UO-31; CCRF-CEM; HCC 2998; TK-10; EKVX; MDA-N; IGROV-1; UACC-62; COLO 205; HL-60; Malme-3M.
What all share (test): NCI-60 cell line screen, 48 h

As for `C=CCC1(c2ccc(OC)cc2)C=CC(=O)CC1` (centres undefined), the GI50 in the assay on OVCAR-5, with OVCAR-8, in the assay on HCT-116, in the assay on NCI-H460, in the assay on ACHN and in the assay on SW-620 was > 100 µM (inactive) in each case. The GI50 in the assay on SF-268 was > 100 µM (inactive); in the assay on SN12C, > 100 µM (inactive); in the assay with CAKI-1, > 100 µM (inactive); in the assay on UO-31, > 100 µM (inactive); with CCRF-CEM, 24.3 µM (inactive); with HCC 2998 it was > 100 µM (inactive). Besides, the GI50 is > 100 µM (inactive) with TK-10; > 100 µM (inactive) with EKVX; 65.8 µM (inactive) in the assay on MDA-N; > 100 µM (inactive) in the assay with IGROV-1; 68.7 µM (inactive) in the assay on UACC-62; > 100 µM (inactive) in the assay on COLO 205. The GI50 in the assay with HL-60 was 38.9 µM (inactive).
As to `C=CCOc1ccccc1C1(O)c2ccccc2C2=NCCCN21` (centres undefined), the GI50 with OVCAR-5 was 32.3 µM (inactive); in the assay on OVCAR-8, 19.5 µM (inactive); in the assay on HCT-116 it was 34.2 µM (inactive); in the assay on NCI-H460, 78.9 µM (inactive); in the assay on ACHN, 37.8 µM (inactive); in the assay with SW-620, 56.5 µM (inactive). In addition, the GI50 with SF-268 was > 100 µM (inactive); with SN12C it was 74.1 µM (inactive); in the assay with CAKI-1, > 100 µM (inactive); with UO-31, > 100 µM (inactive); with CCRF-CEM, 33 µM (inactive); in the assay on HCC 2998 it was 15.7 µM (inactive). Also, the GI50 was 90.8 µM (inactive) with TK-10; 56.1 µM (inactive) in the assay on EKVX; 39.9 µM (inactive) in the assay on MDA-N; 16.8 µM (inactive) with IGROV-1; 40.9 µM (inactive) with UACC-62; 21.4 µM (inactive) in the assay on COLO 205. For the same molecule, the GI50 with HL-60 is 26.8 µM (inactive).
With `CC1=CCC(C(C)(C)NC(=O)c2ccccc2)C/C1=N/O` (centres undefined), the GI50 in the assay on OVCAR-5, in the assay with OVCAR-8, in the assay with HCT-116, in the assay on NCI-H460, in the assay with SW-620 and in the assay on SF-268 was > 100 µM (inactive) throughout. Besides, the GI50 in the assay with SN12C, with UO-31, in the assay with CCRF-CEM, in the assay with HCC 2998, in the assay with TK-10 and in the assay on EKVX was > 100 µM (inactive) in each case. Moreover, the GI50 in the assay on MDA-N, in the assay on IGROV-1, with UACC-62, in the assay with COLO 205 and in the assay with HL-60 was > 100 µM (inactive) in each case.
`COCCN(CCOC)C(=O)COc1c2cc(C(C)(C)C)cc1Cc1cc(C(C)(C)C)cc(c1OCC(=O)N(CCOC)CCOC)Cc1cc(C(C)(C)C)cc(c1OCC(=O)N(CCOC)CCOC)Cc1cc(C(C)(C)C)cc(c1OCC(=O)N(CCOC)CCOC)Cc1cc(C(C)(C)C)cc(c1OCC(=O)N(CCOC)CCOC)C2`: the GI50 in the assay with OVCAR-5 was 5.55 µM (inactive); with OVCAR-8 it was 1.39 µM (inactive); in the assay on HCT-116 it was 0.618 µM (active); with NCI-H460 it was 1.12 µM (inactive); in the assay on ACHN, 0.817 µM (active); with SW-620 it was 0.877 µM (active). Besides, the GI50 in the assay with SF-268 was 1.93 µM (inactive); in the assay with SN12C it was 0.851 µM (active); in the assay with UO-31, 0.366 µM (active); in the assay on CCRF-CEM it was 0.705 µM (active); in the assay on HCC 2998 it was 2.25 µM (inactive); in the assay on Malme-3M it was 1.85 µM (inactive). In addition, the GI50 in the assay with TK-10 was 2.76 µM (inactive); in the assay with EKVX, 0.434 µM (active); in the assay on MDA-N it was 2.1 µM (inactive); with IGROV-1, 1.18 µM (inactive); with UACC-62 it was 1.18 µM (inactive); in the assay with COLO 205, 0.562 µM (active). Also, the GI50 in the assay on HL-60 is 1.25 µM (inactive).
Consider `N#CC(C#N)=C1C(=Cc2ccc(OCCCCCCCCCCSSCCCCCCCCCCOc3ccc(C=C4C(=C(C#N)C#N)c5ccccc5C4=C(C#N)C#N)cc3)cc2)C(=C(C#N)C#N)c2ccccc21`, for which the GI50 in the assay with OVCAR-5 is 20.8 µM (inactive); in the assay with OVCAR-8, 31 µM (inactive); in the assay on HCT-116 it was 17.1 µM (inactive); in the assay with NCI-H460 it was 22.1 µM (inactive); in the assay on ACHN, 36.7 µM (inactive); in the assay on SW-620, 23.3 µM (inactive). Also, the GI50 in the assay with SF-268 was 19.5 µM (inactive); with CAKI-1, 24.7 µM (inactive); in the assay on UO-31 it was 18.2 µM (inactive); in the assay with HCC 2998, 14.7 µM (inactive); in the assay with TK-10, 47.4 µM (inactive); with EKVX, 20.9 µM (inactive). Moreover, the GI50 with MDA-N is 34.8 µM (inactive); in the assay on IGROV-1, 42 µM (inactive); with HL-60, 0.0465 µM (active).
In the case of `C1CCCCC2(CCCCCCCCC3(CCC1)SCCS3)SCCS2`, the GI50 in the assay on OVCAR-5, in the assay with OVCAR-8, with HCT-116, in the assay on NCI-H460, in the assay with ACHN and in the assay on SW-620 was > 100 µM (inactive) in each case. The GI50 in the assay with SF-268, in the assay with SN12C, in the assay with CAKI-1, with HCC 2998, with Malme-3M and with TK-10 was > 100 µM (inactive) throughout. Moreover, the GI50 with EKVX, with MDA-N, in the assay on IGROV-1, in the assay with UACC-62, in the assay on COLO 205 and with HL-60 was > 100 µM (inactive) in each case.
In the case of `COc1ccc2cc(C(C)C(O)c3cc(F)c(F)c(F)c3F)ccc2c1` (centres undefined), the GI50 was > 100 µM (inactive) in the assay on OVCAR-5; 65.3 µM (inactive) in the assay with OVCAR-8; > 100 µM (inactive) in the assay with HCT-116; > 100 µM (inactive) in the assay with NCI-H460; 42.9 µM (inactive) in the assay with ACHN; > 100 µM (inactive) with SW-620. In addition, the GI50 in the assay with SF-268 is 76.4 µM (inactive); in the assay on SN12C it was > 100 µM (inactive); in the assay on UO-31, 86.5 µM (inactive); with CCRF-CEM, > 100 µM (inactive); in the assay with HCC 2998, > 100 µM (inactive); with Malme-3M, > 100 µM (inactive). Besides, the GI50 in the assay with TK-10 is > 100 µM (inactive); in the assay on EKVX, 45.5 µM (inactive); in the assay on MDA-N, > 100 µM (inactive); in the assay with IGROV-1, > 100 µM (inactive); in the assay with UACC-62, > 100 µM (inactive); in the assay on COLO 205 it was > 100 µM (inactive). In addition, the GI50 in the assay with HL-60 is 18.7 µM (inactive).
With `Cc1nc(C)c(N2CCN(Cc3ccccc3)CC2)c(O)n1`, the GI50 in the assay with OVCAR-8, in the assay on HCT-116, in the assay on NCI-H460, with ACHN, in the assay on SW-620 and in the assay with SF-268 was > 100 µM (inactive) throughout. Also, the GI50 in the assay with SN12C, in the assay with UO-31, in the assay with CCRF-CEM, in the assay with HCC 2998, in the assay on Malme-3M and with TK-10 was > 100 µM (inactive) in each case. The GI50 in the assay with EKVX, in the assay on MDA-N, in the assay on IGROV-1, in the assay with UACC-62, in the assay with COLO 205 and in the assay on HL-60 was > 100 µM (inactive) each time.
As to `Cc1nc2c(O)cc3c4c(n(Cc5ccccc5)c3c2nc1C)C(=O)CCC4`, the GI50 was > 100 µM (inactive) with OVCAR-5; 12.2 µM (inactive) with OVCAR-8; 34.4 µM (inactive) in the assay on HCT-116; 83 µM (inactive) in the assay on NCI-H460; 25.2 µM (inactive) with ACHN; > 100 µM (inactive) in the assay with SW-620. In addition, the GI50 in the assay on SF-268 is 4.71 µM (inactive); in the assay with SN12C, > 100 µM (inactive); in the assay on UO-31, 56 µM (inactive); in the assay with CCRF-CEM, > 100 µM (inactive); with HCC 2998, > 100 µM (inactive); in the assay on Malme-3M, 27.8 µM (inactive). For the same molecule, the GI50 was 34 µM (inactive) in the assay with TK-10; > 100 µM (inactive) with EKVX; 45.9 µM (inactive) in the assay with MDA-N; 24.5 µM (inactive) in the assay with UACC-62; 83 µM (inactive) in the assay on COLO 205; > 100 µM (inactive) in the assay on HL-60.
As for `O=C(O)C(O)C(O)C(O)C(O)c1nc2ccccc2s1` (centres undefined), the GI50 in the assay on OVCAR-5 was 26.9 µM (inactive); in the assay with OVCAR-8 it was 18.5 µM (inactive); with HCT-116 it was 16.1 µM (inactive); with NCI-H460, 16.3 µM (inactive); in the assay with ACHN, 17.7 µM (inactive); in the assay on SW-620, 22.3 µM (inactive). Further, the GI50 in the assay on SF-268 was 14.9 µM (inactive); in the assay on SN12C it was 18.7 µM (inactive); in the assay on CAKI-1, 17.7 µM (inactive); in the assay on UO-31, 15.9 µM (inactive); in the assay on CCRF-CEM it was 3.53 µM (inactive); with Malme-3M it was 15.5 µM (inactive). Further, the GI50 was 15.9 µM (inactive) with TK-10; 15.4 µM (inactive) with EKVX; 17.1 µM (inactive) with MDA-N; 10.9 µM (inactive) with IGROV-1; 15.3 µM (inactive) with UACC-62; 34.8 µM (inactive) with COLO 205. The GI50 in the assay on HL-60 is 17.6 µM (inactive).
For `C[C@@H](NC(=O)CNC(=O)OC(C)(C)C)C(=O)N[C@@H](Cc1ccccc1)C(=O)OCc1ccccc1` (Boc-Gly-[dA]-Phe-OBn), the GI50 in the assay with OVCAR-5 is > 100 µM (inactive); in the assay on OVCAR-8 it was > 100 µM (inactive); in the assay with HCT-116, 47.3 µM (inactive); in the assay on ACHN it was 57.9 µM (inactive); with SW-620 it was 61.7 µM (inactive); in the assay with SF-268 it was 89.1 µM (inactive). In addition, the GI50 was > 100 µM (inactive) in the assay with SN12C; > 100 µM (inactive) with CAKI-1; 51.2 µM (inactive) with UO-31; 19.5 µM (inactive) with CCRF-CEM; 16.2 µM (inactive) in the assay with Malme-3M; > 100 µM (inactive) in the assay on TK-10. Moreover, the GI50 in the assay with EKVX is 97.7 µM (inactive); in the assay on MDA-N it was 36.7 µM (inactive); in the assay with IGROV-1 it was 67.9 µM (inactive); in the assay with UACC-62, 34 µM (inactive); in the assay with COLO 205, 18.2 µM (inactive); with HL-60 it was 35.1 µM (inactive).
